In ChEMBL document CHEMBL1141634, “Cathepsin B inhibitory activities of phthalates isolated from a marine Pseudomonas strain” (Bioorg Med Chem Lett, 2008):
pIC50: −log10 of the molar value.

Assays:
Cathepsin B [1] = target: Cathepsin B (Homo sapiens, UniProt P07858); assay: Inhibition of cathepsin B
B16-F10 = assay: Cytotoxicity against mouse B16F10 cells by MTT assay; assay type: functional
Cathepsin B [2] = target: Cathepsin B (Mus musculus, UniProt P10605); assay: Inhibition of cathepsin B in mouse B16F10 cells; assay type: cell-based, B16-F10
Sequence of Cathepsin B (Mus musculus, UniProt P10605) (P10605 whole entry): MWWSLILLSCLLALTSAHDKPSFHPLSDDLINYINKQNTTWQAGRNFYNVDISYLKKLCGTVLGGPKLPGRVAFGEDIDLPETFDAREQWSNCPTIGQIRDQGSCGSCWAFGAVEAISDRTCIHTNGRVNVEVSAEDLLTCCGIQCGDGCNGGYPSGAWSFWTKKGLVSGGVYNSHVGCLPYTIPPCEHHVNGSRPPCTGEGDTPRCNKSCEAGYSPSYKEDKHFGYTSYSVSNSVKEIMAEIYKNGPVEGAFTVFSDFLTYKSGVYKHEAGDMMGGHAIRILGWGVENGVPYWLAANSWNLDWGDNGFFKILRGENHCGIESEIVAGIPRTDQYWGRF

Compound | pIC50 (Cathepsin B [1]) | Activity (B16-F10) | pIC50 (Cathepsin B [2])
CCCC[C@@H](CC)COC(=O)c1ccccc1C(=O)OC[C@@H](CC)CCCC [BIS(2-ETHYLHEXYL)PHTHALATE] | 3.42 | 7.34% | 3.85
CCCCOC(=O)c1ccccc1C(=O)OCCCC [DIBUTYL PHTHALATE] | 3.38 | 9.45% | 3.64
